Data as given in patent US20230081426A1, “COMPOUNDS AND METHODS FOR KRAS MODULATION AND INDICATIONS THEREFOR” (Plexxikon Inc., priority 2020, published 2023).

How the values were obtained:
[1] = target: T1, G12D-mutant human KRAS (amino acid residues 1-188) (Homo sapiens, UniProt P01116, G12D); assay: KRAS Binding Disruption Assay (AlphaScreen; biotinylated KRpep-2d analogue or RAF1-RBD), G12D; conditions: KRAS G12D; geometric mean; read-out: KRAS GMean IC50 (uM) MUTATION: G12D
T1 construct: G12D or G12C-mutant human KRAS (amino acid residues 1-188) with FLAG tag; made in house; host or cells: E. coli
Method in brief: (§1)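 Mutant KRAS (5-20 nM) incubated 1 h at 25° C with test compound and 5-20 nM biotinylated KRpep-2d analogue or RAF1-RBD in 20 mM HEPES pH 7.5, 100 mM NaCl, 5 mM MgCl2, 0.01% Tween-20, 0.01% BSA.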

[2] = target: T2, G12C-mutant human KRAS (amino acid residues 1-188) (Homo sapiens, UniProt P01116, G12C); assay: KRAS Binding Disruption Assay (AlphaScreen; biotinylated KRpep-2d analogue or RAF1-RBD), G12C; conditions: geometric mean, read-out: KRAS GMean IC50 (uM) MUTATION: G12C
T2 construct: G12D or G12C-mutant human KRAS (amino acid residues 1-188) with FLAG tag; made in house; host or cells: E. coli
Method in brief: as §1

[3] = target: T3, G12V-mutant human KRAS (amino acid residues 1-188) (Homo sapiens, UniProt P01116, G12V); assay: KRAS Binding Competition Assay (AlphaScreen; biotinylated KRpep-2d analogue), G12V; conditions: geometric mean, read-out: KRAS GMean IC50 (uM) MUTATION: G12V
T3 construct: G12V-mutant human KRAS (amino acid residues 1-188) with FLAG tag was purified from E. coli; made in house; host or cells: E. coli

Measured: IC50

O=C1NC(=O)C(CC(=O)N2[C@@H]3CC[C@H]2CN(c2nc(OCC45CCCN4CCC5)nc4c(F)c(-c5cc(O)cc6ccccc56)ccc24)C3)S1 (stereo partly drawn) [P-0299, 5-(2-((1R,5S)-3-(8-fluoro-7-(3-hydroxynaphthalen-1-yl)-2-((tetrahydro-1H-pyrrolizin-7a(5H)-yl)methoxy)quinazolin-4-yl)-3,8-diazabicyclo[3.2.1]octan-8-yl)-2-oxoethyl)thiazolidine-2,4-dione]
0.0001 to 10 µM: all assays above

CN1CCC[C@H]1COc1nc(N2CC3CCC2CN3C(=O)CC2SC(=O)NC2=O)c2ccc(-c3cc(O)cc4ccccc34)c(F)c2n1 (stereo partly drawn) [P-0328, 5-(2-(5-(8-fluoro-7-(3-hydroxynaphthalen-1-yl)-2-(((S)-1-methylpyrrolidin-2-yl)methoxy)quinazolin-4-yl)-2,5-diazabicyclo[2.2.2]octan-2-yl)-2-oxoethyl)thiazolidine-2,4-dione]
0.0001 to 10 µM: all assays above

O=C(CCCn1ccnc1)N1[C@@H]2CC[C@H]1CN(c1nc(OCC34CCCN3CCC4)nc3c(F)c(-c4cc(O)cc5ccccc45)ccc13)C2 [P-0351, 1-((1R,5S)-3-(8-fluoro-7-(3-hydroxynaphthalen-1-yl)-2-((tetrahydro-1H-pyrrolizin-7a(5H)-yl)methoxy)quinazolin-4-yl)-3,8-diazabicyclo[3.2.1]octan-8-yl)-4-(1H-imidazol-1-yl)butan-1-one]
0.0001 to 10 µM: all assays above

NS(=O)(=O)CC(=O)N1[C@@H]2CC[C@H]1CN(c1nc(OCC34CCCN3CCC4)nc3c(F)c(-c4cc(O)cc5ccccc45)ccc13)C2 [P-0352, 2-((1R,5S)-3-(8-fluoro-7-(3-hydroxynaphthalen-1-yl)-2-((tetrahydro-1H-pyrrolizin-7a(5H)-yl)methoxy)quinazolin-4-yl)-3,8-diazabicyclo[3.2.1]octan-8-yl)-2-oxoethane-1-sulfonamide]
0.0001 to 10 µM: all assays above

N#CCC(=O)N1[C@@H]2CC[C@H]1CN(c1nc(OCC34CCCN3CCC4)nc3c(F)c(-c4cc(O)cc5ccccc45)ccc13)C2 [P-0354, 3-((1R,5S)-3-(8-fluoro-7-(3-hydroxynaphthalen-1-yl)-2-((tetrahydro-1H-pyrrolizin-7a(5H)-yl)methoxy)quinazolin-4-yl)-3,8-diazabicyclo[3.2.1]octan-8-yl)-3-oxopropanenitrile]
0.0001 to 10 µM: all assays above

O=C1CC(CC(=O)N2[C@@H]3CC[C@H]2CN(c2nc(OCC45CCCN4CCC5)nc4c(F)c(-c5cc(O)cc6ccccc56)ccc24)C3)C(=O)N1 (stereo partly drawn) [P-0356, 3-(2-((1R,5S)-3-(8-fluoro-7-(3-hydroxynaphthalen-1-yl)-2-((tetrahydro-1H-pyrrolizin-7a(5H)-yl)methoxy)quinazolin-4-yl)-3,8-diazabicyclo[3.2.1]octan-8-yl)-2-oxoethyl)pyrrolidine-2,5-dione]
0.0001 to 10 µM: all assays above

CN1CCC[C@H]1COc1nc(N2CC3COCC(C2)N3)c2cc(Cl)c(-c3cc(O)cc4cccc(Cl)c34)c(F)c2n1 [P-0365, 4-(4-(3-oxa-7,9-diazabicyclo[3.3.1]nonan-7-yl)-6-chloro-8-fluoro-2-(((S)-1-methylpyrrolidin-2-yl)methoxy)quinazolin-7-yl)-5-chloronaphthalen-2-ol]
0.0001 to 10 µM: all assays above

O=C1NC(=O)C(CC(=O)N2[C@@H]3CC[C@H]2CN(c2nc(OCC45CCCN4CCC5)nc4c(F)c(-c5cc(O)cc6ccccc56)ccc24)C3)N1 (stereo partly drawn) [P-0366]
0.0001 to 10 µM: all assays above

O=C1NC(=O)C(CCC(=O)N2[C@@H]3CC[C@H]2CN(c2nc(OCC45CCCN4CCC5)nc4c(F)c(-c5cc(O)cc6ccccc56)ccc24)C3)N1 (stereo partly drawn) [P-0375, 5-(3-((1R,5S)-3-(8-fluoro-7-(3-hydroxynaphthalen-1-yl)-2-((tetrahydro-1H-pyrrolizin-7a(5H)-yl)methoxy)quinazolin-4-yl)-3,8-diazabicyclo[3.2.1]octan-8-yl)-3-oxopropyl)imidazolidine-2,4-dione]
0.0001 to 10 µM: all assays above

NC1=NC(=O)C(CC(=O)N2[C@@H]3CC[C@H]2CN(c2nc(OCC45CCCN4CCC5)nc4c(F)c(-c5cc(O)cc6ccccc56)ccc24)C3)S1 (stereo partly drawn) [P-0384, 2-amino-5-(2-((1R,5S)-3-(8-fluoro-7-(3-hydroxynaphthalen-1-yl)-2-((tetrahydro-1H-pyrrolizin-7a(5H)-yl)methoxy)quinazolin-4-yl)-3,8-diazabicyclo[3.2.1]octan-8-yl)-2-oxoethyl)thiazol-4 (5H)-one]
0.0001 to 10 µM: all assays above

O=C(Cn1ccnc1)N1[C@@H]2CC[C@H]1CN(c1nc(OCC34CCCN3CCC4)nc3c(F)c(-c4cc(O)cc5ccccc45)ccc13)C2 [P-0387, 1-((1R,5S)-3-(8-fluoro-7-(3-hydroxynaphthalen-1-yl)-2-((tetrahydro-1H-pyrrolizin-7a(5H)-yl)methoxy)quinazolin-4-yl)-3,8-diazabicyclo[3.2.1]octan-8-yl)-2-(1H-imidazol-1-yl)ethan-1-one]
0.0001 to 10 µM: all assays above

CN1CCC[C@H]1COc1nc(N2C[C@H]3CC[C@@H](C2)N3C(=O)C(N)=O)c2ccc(-c3cc(O)cc4ccccc34)c(F)c2n1 [P-0397, 2-((1R,5S)-3-(8-fluoro-7-(3-hydroxynaphthalen-1-yl)-2-(((S)-1-methylpyrrolidin-2-yl)methoxy)quinazolin-4-yl)-3,8-diazabicyclo[3.2.1]octan-8-yl)-2-oxoacetamide]
0.0001 to 10 µM: all assays above

NS(=O)(=O)NCC(=O)N1[C@@H]2CC[C@H]1CN(c1nc(OCC34CCCN3CCC4)nc3c(F)c(-c4cc(O)cc5ccccc45)ccc13)C2 [P-0408, N-(2-((1R,5S)-3-(8-fluoro-7-(3-hydroxynaphthalen-1-yl)-2-((tetrahydro-1H-pyrrolizin-7a(5H)-yl)methoxy)quinazolin-4-yl)-3,8-diazabicyclo[3.2.1]octan-8-yl)-2-oxoethyl)aminosulfonamide]
0.0001 to 10 µM: all assays above

N#CC1(CC(=O)N2[C@@H]3CC[C@H]2CN(c2nc(OCC45CCCN4CCC5)nc4c(F)c(-c5cc(O)cc6ccccc56)ccc24)C3)CC1 [P-0409, 1-(2-((1R,5S)-3-(8-fluoro-7-(3-hydroxynaphthalen-1-yl)-2-((tetrahydro-1H-pyrrolizin-7a(5H)-yl)methoxy)quinazolin-4-yl)-3,8-diazabicyclo[3.2.1]octan-8-yl)-2-oxoethyl)cyclopropane-1-carbonitrile]
0.0001 to 10 µM: all assays above

O=C1N=C(S)SC1CC(=O)N1[C@@H]2CC[C@H]1CN(c1nc(OCC34CCCN3CCC4)nc3c(F)c(-c4cc(O)cc5ccccc45)ccc13)C2 (stereo partly drawn) [P-0411, 5-(2-((1R,5S)-3-(8-fluoro-7-(3-hydroxynaphthalen-1-yl)-2-((tetrahydro-1H-pyrrolizin-7a(5H)-yl)methoxy)quinazolin-4-yl)-3,8-diazabicyclo[3.2.1]octan-8-yl)-2-oxoethyl)-2-mercaptothiazol-4(5H)-one]
0.0001 to 10 µM: all assays above

CN1C(=O)SC(CC(=O)N2[C@@H]3CC[C@H]2CN(c2nc(OCC45CCCN4CCC5)nc4c(F)c(-c5cc(O)cc6ccccc56)ccc24)C3)C1=O (stereo partly drawn) [P-0412, 5-(2-((1R,5S)-3-(8-fluoro-7-(3-hydroxynaphthalen-1-yl)-2-((tetrahydro-1H-pyrrolizin-7a(5H)-yl)methoxy)quinazolin-4-yl)-3,8-diazabicyclo[3.2.1]octan-8-yl)-2-oxoethyl)-3-methylthiazolidine-2,4-dione]
0.0001 to 10 µM: all assays above

O=C1N[C@@H](CC(=O)N2[C@@H]3CC[C@H]2CN(c2nc(OCC45CCCN4CCC5)nc4c(F)c(-c5cc(O)cc6ccccc56)ccc24)C3)CO1 [P-0414, (S)-4-(2-((1R,5S)-3-(8-fluoro-7-(3-hydroxynaphthalen-1-yl)-2-((tetrahydro-1H-pyrrolizin-7a(5H)-yl)methoxy)quinazolin-4-yl)-3,8-diazabicyclo[3.2.1]octan-8-yl)-2-oxoethyl)oxazolidin-2-one]
0.0001 to 10 µM: all assays above
